Values quoted from earlier work, collected in patent publication US20240293312A1, “PHARMACEUTICAL COMPOSITIONS OF 3-(4-AMINO-1-OXO-1, 3 DIHYDRO-ISOINDOL-2-YL)-PIPERIDINE-2, 6-DIONE” (priority 2021, published 2024).

Nc1cccc2c1CN(C1CCC(=O)NC1=O)C2=O (stereo not shown) [Lenalidomide, 3-(4-amino-1-oxo-1,3-dihydro-2H-isoindol-2-yl) piperidine-2,6-dione]
solubility (in words): soluble in organic solvent/water mixtures, and buffered aqueous solvents
